PubChem BioAssay (NCI)
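Where inhibition never reached the appropriate level, the endpoint shown equals the highest concentration tested. Otherwise, values were interpolated linearly from a five-concentration, 48-hour dose response in 96-well plates. At the GI50, growth is halved. TGI: concentration producing complete growth inhibition.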

How the values were obtained:
Assay in all cases: NCI-60 cell line screen, 48 h
[1] = system: A549 NSCLC
[2] = system: NCI/ADR-RES ovarian
[3] = system: TK-10 renal
[4] = system: U251 CNS
[5] = system: UO-31 renal
[6] = system: IGROV1 ovarian
[7] = system: MCF7 breast
[8] = system: SF-268 CNS
[9] = system: UACC-257 melanoma
[10] = system: RPMI-8226 leukemia
[11] = system: SW-620 colon
[12] = system: CAKI-1 renal
[13] = system: KM12 colon
[14] = system: SNB-75 CNS
[15] = system: MALME-3M melanoma
[16] = system: MOLT-4 leukemia
[17] = system: PC-3 prostate
[18] = system: HOP-62 NSCLC
[19] = system: OVCAR-4 ovarian
[20] = system: ACHN renal
[21] = system: UACC-62 melanoma
[22] = system: NCI-H522 lung
[23] = system: MDA-MB-435
[24] = system: EKVX NSCLC
[25] = system: SR leukemia
[26] = system: HS 578T breast
[27] = system: OVCAR-8 ovarian
[28] = system: HCT-15 colon
[29] = system: RXF 393 renal
[30] = system: SK-MEL-28 melanoma
[31] = system: MDA-MB-231 breast
[32] = system: HCC-2998 colon
[33] = system: HL-60(TB) leukemia
[34] = system: DU-145 prostate
[35] = system: HCT-116 colon
[36] = system: CCRF-CEM leukemia
[37] = system: BT-549 breast
[38] = system: HOP-92 NSCLC
[39] = system: NCI-H460 lung
[40] = system: SK-MEL-2 melanoma
[41] = system: LOX IMVI melanoma
[42] = system: A498 renal
[43] = system: SF-295 CNS
[44] = system: NCI-H23 lung
[45] = system: OVCAR-5 ovarian
[46] = system: HT29 colon
[47] = system: SNB-19 CNS
[48] = system: K-562 leukemia
[49] = system: T-47D breast
[50] = system: M14 melanoma
[51] = system: OVCAR-3 ovarian
[52] = system: SN12C renal
[53] = system: 786-0 renal
[54] = system: SF-539 CNS

With `c1ccc([P+](c2ccccc2)(c2ccccc2)c2ccc3c4ccc([P+](c5ccccc5)(c5ccccc5)c5ccccc5)c5cccc(c6cccc2c63)c54)cc1` the GI50 [1] was 0.986 µM, the TGI [1] was greater than 100 µM and the GI50 [2] was 9.41 µM. The TGI [2] was greater than 100 µM, the GI50 [3] was 4.18 µM and the TGI [3] was greater than 100 µM. The GI50 [4] was 0.445 µM, the TGI [4] was 17.9 µM and the GI50 [5] was 2.73 µM. For the same compound, the TGI [5] was 78.3 µM, the GI50 [6] was 1.41 µM and the TGI [6] was 7.47 µM. The GI50 [7] was 1.25 µM, the TGI [7] was 14.2 µM and the GI50 [8] was 0.995 µM. For the same compound, the TGI [8] was 20 µM, the GI50 [9] was 2.12 µM and the TGI [9] was 8.47 µM. It also gave a GI50 [10] of 0.647 µM, a TGI [10] of 4.16 µM and a GI50 [11] of 1.98 µM. The TGI [11] was 10.8 µM, the GI50 [12] was 6.15 µM and the TGI [12] was greater than 100 µM. The GI50 [13] was 0.743 µM, the TGI [13] was 3.1 µM and the GI50 [14] was 0.435 µM. For the same compound, the TGI [14] was 4.17 µM, the GI50 [15] was 0.412 µM and the TGI [15] was 2.56 µM. The GI50 [16] was 2.37 µM, the TGI [16] was 19.3 µM and the GI50 [17] was 1.65 µM. The TGI [17] was 14.3 µM, the GI50 [18] was 0.931 µM and the TGI [18] was 25.8 µM. For the same compound, the GI50 [19] was 1.89 µM, the TGI [19] was 30.8 µM and the GI50 [20] was 3.79 µM. It also gave a TGI [20] greater than 100 µM, a GI50 [21] of 1.47 µM and a TGI [21] of 4.64 µM. The GI50 [22] was 1.24 µM, the TGI [22] was 13.7 µM and the GI50 [23] was 0.799 µM. It also gave a TGI [23] of 4.21 µM, a GI50 [24] of 1.69 µM and a TGI [24] of 35.2 µM. The GI50 [25] was 1.1 µM, the TGI [25] was greater than 100 µM and the GI50 [26] was 0.574 µM. For the same compound, the TGI [26] was 5.49 µM, the GI50 [27] was 1.32 µM and the TGI [27] was greater than 100 µM. The GI50 [28] was 5.89 µM, the TGI [28] was greater than 100 µM and the GI50 [29] was 2.79 µM. The TGI [29] was 25.3 µM, the GI50 [30] was 1.67 µM and the TGI [30] was 6.15 µM. For the same compound, the GI50 [31] was 2.22 µM, the TGI [31] was 9.98 µM and the GI50 [32] was 2.28 µM. For the same compound, the TGI [32] was 8.51 µM, the GI50 [33] was 2.38 µM and the TGI [33] was 6.25 µM. The GI50 [34] was 0.811 µM, the TGI [34] was 13.4 µM and the GI50 [35] was 1.54 µM. The TGI [35] was 10.4 µM, the GI50 [36] was 2.13 µM and the TGI [36] was 33.3 µM. It also gave a GI50 [37] of 0.455 µM, a TGI [37] of 2.69 µM and a GI50 [38] of 1.18 µM. For the same compound, the TGI [38] was 5.44 µM, the GI50 [39] was 0.692 µM and the TGI [39] was 3.94 µM. The GI50 [40] was 2.57 µM, the TGI [40] was 7.58 µM and the GI50 [41] was 2.67 µM. It also gave a TGI [41] of 20.7 µM, a GI50 [42] of 0.889 µM and a TGI [42] of 6.79 µM. The GI50 [43] was 1.24 µM, the TGI [43] was 5.36 µM and the GI50 [44] was 2.1 µM. It also gave a TGI [44] of 13.5 µM, a GI50 [45] of 2.82 µM and a TGI [45] greater than 100 µM. The GI50 [46] was 1.64 µM, the TGI [46] was 13.3 µM and the GI50 [47] was 0.714 µM. It also gave a TGI [47] of 13.1 µM, a GI50 [48] of 0.506 µM and a TGI [48] greater than 100 µM. For the same compound, the GI50 [49] was 0.621 µM, the TGI [49] was 24.6 µM and the GI50 [50] was 1.39 µM. It also gave a TGI [50] of 7.48 µM, a GI50 [51] of 1.91 µM and a TGI [51] of 11.9 µM. The GI50 [52] was 1.09 µM, the TGI [52] was 13.7 µM and the GI50 [53] was 3.04 µM. It also gave a TGI [53] of 28.8 µM, a GI50 [54] of 0.477 µM and a TGI [54] of 2.32 µM.
